According to patent US12350337B2, “Polymeric drug delivery conjugates and methods of making and using thereof” (UNIVERSITY OF UTAH RESEARCH FOUNDATION, priority 2019, dated 2025):
Where no end group is shown, it is not given here. [ ]: non-standard residue; d: D form.

Experiments:
4T1 tumor = test system: 4T1 tumor; set-up: species or system BALB/c mice; conditions: mouse, in vivo, iv
Description: (§1) Fluorescence intensities were normalized to the same scale. Black circles indicate the tumor. (B) In vivo tumor cell uptake of EPI after the mice were treated with either free EPI or KT-1 (10 mg/kg EPI equivalence) at 1, 4, 7 days post injection. Data represent n=5 independently analyzed mice/group. […] Blue: cell nuclei; Green: EPI; Red: CRT. […] Data are represented as box plots (whiskers, 5th to 95th percentile). n=4 for saline and EPI treatments, and n=6 for KT-1 treatment, from a representative experiment from two independent experiments. * P<0.05 by student's t-test.
KT-1, a degradable diblock HPMA copolymer-EPI conjugate with narrow polydispersity, was synthesized via one step reversible addition-fragmentation chain transfer (RAFT) polymerization and characterized in FIG. 2B and the techniques provided in Yang et al., J. Controlled Release, 218 (2015) 36-44. KT-1 has long-lasting retention in tumors. […] In contrast, KT-1-Cy5 profoundly accumulated at tumor site, which peaked at 24 h and lasted for at least 196 h.

4T1 tumors [1] = experiment: In vivo tumoral PD-L1 expression and tumor-infiltrating lymphocytes after KT-1 followed by PD-L1 blockade; set-up: species or system BALB/c mice; conditions: for tumoral PD-L1 expression: KT-1 Days 7 and 14, PD-L1 blockade Day 15, two days post blockade
Description: (§2) (A) Schematic illustration of inhibiting PD-L1 recycling by MPPA crosslinking. (B) Lysosome colocalization with α-PD-L1-Cy5 or Cy3-labeled MPPA (P-(PPA)14-Cy3) after 3 h treatments at 37° C. Blue: nuclei; Red: Cy3/Cy5; Green: lysosome. (C) Whole cell PD-L1 expression with or without lysosome hydrolysis inhibition by E-64. 4T1 cells were treated with α-PD-L1, PPA, or MPPA for 3 h in the absence (−) or presence (+) of E-64 cysteine protease inhibitor. Afterward, cells were further incubated in cell culture medium for another 24 h, prior to PD-L1 quantification. (D) Time-dependent recovery of surface PD-L1. […] (E) In vivo tumoral PD-L1 expression, and (F) representative flow cytometry analysis plots of CD3+CD8+CTLs and CD4+ Foxp3+ Tregs after KT-1 and MPPA combination treatment as indicated by arrows in (E). n=3 in (C) and (D), and n=5 in (E) and (F), from a representative experiment from two independent experiments.
To validate the PD-L1 depletion in vivo, mice bearing 4T1-tumor were treated with α-PD-L1, PPA, or MPPA on Day 15, following two doses of KT-1 treatment on Day 7 and 14 (FIG. 7E). Tumoral PD-L1 expression and tumor-infiltrating lymphocytes were studied two days post PD-L1 blockade.

4T1 cells [2] = experiment: Lysosome colocalization (confocal); type: cell-based, murine; conditions: 3 h at 37° C.
Description: as §2
(§3) Together, these findings established the polymer-facilitated crosslinking of surface PD-L1 as a potential therapeutic strategy to produce prolonged elimination of PD-L1, rather than the transient blocking afforded by standard anti-PD-L1 antibodies.

PD-L1 [3] = target: T1, PD-L1 (Mus musculus, UniProt Q9EP73); experiment: Whole cell PD-L1 expression with or without E-64; type: cell-based, murine
T1 construct: Specificity of PPA towards PD-L1 on 4T1 cells; endogenous in cells; host or cells: 4T1 cells
T1 sequence (Q9EP73 19-290): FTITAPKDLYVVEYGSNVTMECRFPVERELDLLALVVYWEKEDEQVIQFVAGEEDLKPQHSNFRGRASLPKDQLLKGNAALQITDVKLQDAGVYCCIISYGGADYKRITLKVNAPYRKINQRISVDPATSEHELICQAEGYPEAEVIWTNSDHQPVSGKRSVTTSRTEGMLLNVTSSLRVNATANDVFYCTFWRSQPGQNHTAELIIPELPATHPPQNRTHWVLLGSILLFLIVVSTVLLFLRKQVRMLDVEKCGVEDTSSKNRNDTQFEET
Description: as §2, §3

CT26 tumors = experiment: Subcutaneous CT26 colon carcinoma model; type: in vivo, BALB/c mice
Source text: Blue: cell nuclei; Green: EPI; Red: CRT.
Moreover, KT-1→MPPA further improved the anti-tumor efficacy, and outperformed KT-1→α-PD-L1 (20% complete tumor regression), leading to complete regression of established tumors in 60% of animals (FIG. 15A).

[4] = test system: LLC-1 Lewis lung carcinoma cells; experiment: Metastatic LLC-1 Lewis lung carcinoma model
Description: (I) Survival rate of mice after indicated treatments (n=5). C57BL/6 mice were intravenously inoculated with 2×10^5 LLC-1 Lewis lung carcinoma cells on day 0. Then mice were treated as described in (A). (J) The fold increases in the percentage tumor cell-reactive T cells (IFN-γ+CD8+) among PBMCs from mice in (I) on Day 25 against LLC-1 cells. (K) CD44+CD62L-memory effector CD8+ T cells in spleen from mice in (I) on Day 25. (L) Tumor burden in lungs from mice in (I) on Day 25, depicted as lung weight and hematoxylin-eosin histology analysis of lung lobe sections.* P<0.05, n.s, not significant, one-way ANOVA with Tukey's multiple comparison test.

4T1 tumors [5] = experiment: 4T1 tumor therapy with PPA, MPPA and KT-1 combinations; type: in vivo, BALB/c mice
Source text: (B) Individual tumor volume, (C) body weight change, and (D) survival rate in 4T1-tumor bearing BALB/c mice over time after different treatments (n=5-10). (E) Individual tumor volume measurement after naive control mice or KT-1→MPPA treated CR mice in (D) were subcutaneously re-challenged with 4T1 or CT26 cells (n=5). (F) The representative scatter plots of the percentage of tumor cell-reactive T cells (IFN-γ+CD8+) among PBMCs from KT-1→MPPA treated CR mice in (D) against 4T1 cells or CT26 cells (n=5). (G) Mice survival curve after re-challenge by i.v. injection of 4T1 cells after initial KT-1→MPPA treatment (n=5). (H) CD44+CD62L-memory effector CD8+ T cells in spleen after 4T1 cell i.v. re-challenge (n=5).

PD-L1 [6] = target: T1, PD-L1; conditions: cited from earlier work
PD-L1 [7] = target: T1, PD-L1; experiment: PPA specificity to PD-L1: inhibition of Cy5-labeled anti-PD-L1 antibody binding on 4T1 cells; set-up: species or system murine; conditions: 0.2 mM, pretreatment 1 h, co-incubation 1 h, 4° C.
Description: (A) The PD-1/PD-L1 interaction mediated by PPA from immune escape to cancer immunotherapy. (B) Specificity of PPA towards PD-L1 on 4T1 cells. Negative control: Cy5-labeled anti-CD20 mAb rituximab (RTX) incubation with 4T1 cells at 4° C. for 1 h; Positive control: Cy5-labeled anti-PD-L1 antibody incubation with 4T1 cells at 4° C. for 1 h; PPA: 0.2 mM PPA pretreatment for 1 h and co-incubation with Cy5-labeled anti-PD-L1 antibody for 1 h 4° C. […] (C) Synthesis scheme and characterization of Cy3-labeled HPMA copolymer-PPA conjugates with different PPA valences.
PD-L1 peptide antagonist (PPA), with the amino acid sequence shown in FIG. 8A, was reported to bind PD-L1 with high affinity, and further confirmed in FIG. 8B. To achieve multimeric PD-L1 crosslinking, PPA was grafted onto HPMA copolymer to generate the multivalent polymer-PPA conjugates. By varying the ratio of the reaction components, a panel of conjugates was prepared with different valences for subsequent evaluation. Three conjugates with Cy3 labeled backbone were prepared: P-(PPA)14-Cy3, P-(PPA)4.3-Cy3, P-(PPA)1.3-Cy3, with the subscript denotes the valence. Additionally, unlabeled MPPA for receptor depletion studies was prepared with degradable backbone.

4T1 cells [8] = experiment: Internalization of surface bound P-(PPA)x-Cy3; type: cell-based, murine; conditions: 37° C., compared with low-valence P-(PPA)1.3-Cy3 and P-Cy3
Description: Then surface PD-L1 along with receptor-bound conjugates were removed by proteinase-K digestion (0.4 mg/mL, 20 min, 37° C.), and flow cytometry was used to measure the internalized conjugates. Experiments were conducted in triplicate.
as §3

4T1 tumors [9] = experiment: 4T1 tumor growth, survival and endpoint tumor immune analysis (EPI, KT-1, α-CD8, α-PD-L1 combinations); type: in vivo, BALB/c mice
4T1 tumors [10] = experiment: In vivo ICD induction and immune cell analysis after two doses; set-up: species or system BALB/c mice; conditions: Day 15
Description: as §1
Having shown tumor-targeted delivery of KT-1, KT-1's impact on inducing ICD that implicates calreticulin (CRT) expression and high-mobility group box 1 (HMGB1) release was examined. CRT exposed on the surfaces of immunogenically dying tumor cells sends dendritic cells (DCs) an “eat me” signal to facilitate phagocytosis by antigen-presenting cells (APCs), while released HMGB1 functions as the “danger” signal and stimulates optimal antigen presentation to T cells. […] In FIG. 3D-E, BALB/c mice bearing non-immunogenic 4T1 tumors, were given two intravenous doses (on Days 7 and 14 after tumor implantation) of treatments with saline, EPI or KT-1 (first EPI equivalence dose 10 mg/kg followed by second dose 5 mg/kg).
This could be the result of efficiently triggering ICD-associated signals in tumors. […]

[11] = KT-1 Days 7 and 14, PD-L1 blockade Day 15
[12] = 3 weekly treatments, EPI equivalence 10 mg/kg then two doses 5 mg/kg

In the case of cyanine 5 [Cy5], the “tumor retention (in words)” value (4T1 tumor) is reported as “rapidly eliminated from the tumor and barely detectable after 2 h post-injection”.
With “MPPA: backbone-degradable HPMA copolymer grafted with multiple copies of PD-L1 peptide antagonist PPA, valence 12.6 (CNYSKPTDRQYHF)” the “tumor infiltration of CTLs” value (4T1 tumors [1]; [11]) was “did not further enhance tumor infiltration of CTLs”, the “tumoral PD-L1 expression” value (4T1 tumors [1]) was “further reduction in PD-L1 expression” and the lysosome colocalization (4T1 cells [2]) was “substantial MPPA internalized into lysosome”. For the same molecule, the PD-L1 depletion (PD-L1 [3]; 24 h post cell binding, without E-64) was “depleted PD-L1 to a higher degree than α-PD-L1”, the “PD-L1 depletion in the presence of E-64” value (PD-L1 [3]; E-64 cysteine protease inhibitor present) was “alleviated MPPA-triggered PD-L1 depletion” and the tumor growth (CT26 tumors; CT26, KT-1 days 7, 14, 21, anti-PD-L1 therapy days 15, 22) was “marginal effect in inhibiting tumor growth”. For the same molecule, the “PD-L1 expression in CT26 tumors” value (CT26 tumors; Day 17, after KT-1 Days 7 and 14, one dose Day 15) was “more profound decrease in PD-L1 expression than α-PD-L1”, the median survival ([4]; C57BL/6 mice, i.v. LLC-1 cells) was 28 days and the “reactive IFN-γ+CD8+ T cells in PBMCs and CD8+CD62L-CD44+ effector memory T cells in spleen” value ([4]; Day 25) was “none of the treatments with saline, α-PD-L1, or MPPA increased the number”. The “tumor growth / therapeutic efficacy” value (4T1 tumors [5]) was “slightly better therapeutic efficacy than PPA”.
In the case of NYSKPTDRQYHF [PPA], the “binding to PD-L1 (reported)” value (PD-L1 [6]) is listed as “high affinity”, the Tregs in tumors (4T1 tumors [1]; [11]) is listed as “depleted Tregs” and the “tumor infiltration of CTLs” value (4T1 tumors [1]; [11]) is listed as “did not further enhance tumor infiltration of CTLs”. The “tumoral PD-L1 expression” value (4T1 tumors [1]) was “downregulated PD-L1 expression”, the “cell surface binding of anti-PD-L1 antibody after pretreatment” value (PD-L1 [7]) was “significantly inhibited” and the “tumor growth / therapeutic efficacy” value (4T1 tumors [5]) was “barely delayed tumor growth”.
For “P-(PPA)4.3-Cy3 ([dN][dY][dS][dK][dP][dT][dD][dR][dQ][dY][dH][dF]; also: conjugated to (PPA)4.3 and Cy3, places not given here)”, the internalization rate (4T1 cells [8]) was “accelerated internalization rates”.
With “P-(PPA)14-Cy3 ([dN][dY][dS][dK][dP][dT][dD][dR][dQ][dY][dH][dF]; also: conjugated to (PPA)14 and Cy3, places not given here)” the internalization rate (4T1 cells [8]) was “accelerated internalization rates”.
For `COc1cccc2c1C(=O)c1c(O)c3c(c(O)c1C2=O)C[C@@](O)(C(=O)CO)C[C@@H]3O[C@H]1C[C@H](N)[C@@H](O)[C@H](C)O1` [EPI, Epirubicin], the animal survival (4T1 tumors [9]; [12]) was “limited effect”, the tumor growth (4T1 tumors [9]; [12]) was “limited effect on controlling tumor” and the “tumor PD-L1 expression after chemotherapy” value (4T1 tumors [9]; endpoint of 3 weekly treatments) was “adaptively enriched”. The “frequency of CD11c+CD11b+Ly6c+CD86+ cells in tumor-draining lymph nodes” value (4T1 tumors [10]) was “failed to generate the subset of CD11c+CD11b+Ly6c+ DCs”.
